In experiment [1] the test system is BC02 pseudovirus (CRF07_BC). In kind it is cell-based, HIV-1. Particulars: R5, TZM-bl, 48 h, triplicate, mean ± SD of at least three independent experiments. The text has this: (§1) A panel of plasmids encoding HIV-1 Envs were obtained through the AIDS Research and Reference Reagent Program (ARRRP), Division of AIDS, NIAID, NIH, including subtype A Env clones pSVIII-92RW020.5 and 92UG037.8 from Dr. B.H. Hahn; subtype B Env clones SC422661.8, TRO.11 and AC10.0.29 from Drs. D. Montefiori, F. Gao and M. Li, pRHPA4259.7 and pREJO4541.67 from Drs. B.H. Hahn and J.F. Salazar-Gonzalez, and pCAAN5342.A2 from Drs. B.H. Hahn and D.L. Kothe; subtype C Env clones Du172.17 and Du422.1 from Drs. D. Montefiori, F. Gao, S. Abdool Karim and G. Ramjee, CAP45.2.00.G3 from Drs. L. Morris, K. Mlisana and D. Montefiori, ZM197M.PB7 from Drs. B.H. Hahn, Y. Li and J.F. Salazar-Gonzalez, ZM109F.PB4 from Drs. E. Hunter and C. Derdeyn. Six CRF07_BC Env clones (CH064.20, CH070.1, CH091.9, CH110.2, CH119.10 and CH120.6) were generous gifts by Dr. Y. Shao in the Chinese Center for Disease Control and Prevention, Beijing, China. A panel of Env clones derived from subtype B′ (B01, B02, B04, and 43-22), CRF01_AE (SHX335.24, YN192.31, AE01, AE03, GX2010.36, GX11.13, GX2010.36H, BJ5.11), and CRF07_BC (BC02, BC03, BC05, BC07, BC14, SC19-15, BJ22-5, YN148R-9, XJ50-6, HB5-3) were kindly provided by Dr. Y. Wang from the National Institute for the Control of Pharmaceutical and Biological Products, Beijing, China.

The test system of experiment [2] is CAAN5342 pseudovirus (subtype B). The experiment is classed as cell-based, HIV-1. The conditions noted are these: R5, TZM-bl, 48 h, triplicate, mean ± SD of three independent experiments.
Description: as §1

The subject of experiment [3] is SC19-15 pseudovirus (CRF07_BC). The experiment is classed as cell-based, HIV-1. The conditions noted are these: SC19-15, CRF07_BC, R5; TZM-bl, 48 h; triplicate, mean ± SD of at least three independent experiments.
Description: as §1

Experiment [4] deals with SC422661.8 pseudovirus (subtype B). The experiment is classed as cell-based, HIV-1. Particulars: SC422661.8, subtype B, R5; TZM-bl, 48 h; triplicate, mean ± SD of three independent experiments.
Description: as §1

For experiment [5], the system named is B04 pseudovirus (subtype B′). In kind it is cell-based, HIV-1. The conditions noted are these: R5, TZM-bl, 48 h, triplicate, mean ± SD of at least three independent experiments.
Description: as §1

In experiment [6] the test system is REJO4541 pseudovirus (subtype B). In kind it is cell-based, HIV-1. Particulars: R5, TZM-bl, 48 h, triplicate, mean ± SD of three independent experiments.
Description: as §1

Experiment [7] relates to ZM109F.PB4 pseudovirus (subtype C). In kind it is cell-based, HIV-1. The conditions noted are these: R5, TZM-bl, 48 h, triplicate, mean ± SD of three independent experiments.
Description: as §1

For experiment [8], the system named is ZM197M.PB7 pseudovirus (subtype C). In kind it is cell-based, HIV-1. The conditions noted are these: R5, TZM-bl, 48 h, triplicate, mean ± SD of three independent experiments.
Description: as §1

In experiment [9] the test system is 43-22 pseudovirus (subtype B′). The experiment is classed as cell-based, HIV-1. The conditions noted are these: 43-22, B′, R5; TZM-bl, 48 h; triplicate, mean ± SD of at least three independent experiments.
Description: as §1

Experiment [10] relates to CH110 pseudovirus (CRF07_BC). The experiment is classed as cell-based, HIV-1. The conditions noted are these: R5, TZM-bl, 48 h, triplicate, mean ± SD of at least three independent experiments.
Description: as §1

Experiment [11] relates to AC10.0.29 pseudovirus (subtype B). In kind it is cell-based, HIV-1. Particulars: AC10.0.29, subtype B, R5; TZM-bl, 48 h; triplicate, mean ± SD of three independent experiments.
Description: as §1

Experiment [12] has as its system AE01 pseudovirus (CRF01_AE). In kind it is cell-based, HIV-1. The conditions noted are these: R5, TZM-bl, 48 h, triplicate, mean ± SD of at least three independent experiments.
Description: as §1

Experiment [13] concerns HB5-3 pseudovirus (CRF07_BC). In kind it is cell-based, HIV-1. The conditions noted are these: HB5-3, CRF07_BC, R5; TZM-bl, 48 h; triplicate, mean ± SD of at least three independent experiments.
Description: as §1

Experiment [14] concerns CAP45.2.00.G3 pseudovirus (subtype C). In kind it is cell-based, HIV-1. The conditions noted are these: CAP45.2.00.G3, subtype C, R5; TZM-bl, 48 h; triplicate, mean ± SD of three independent experiments.
Description: as §1

For experiment [15], the system named is RHPA4259 pseudovirus (subtype B). The experiment is classed as cell-based, HIV-1. Particulars: R5, TZM-bl, 48 h, triplicate, mean ± SD of three independent experiments.
Description: as §1

The test system of experiment [16] is CH070 pseudovirus (CRF07_BC). The experiment is classed as cell-based, HIV-1. Particulars: R5, TZM-bl, 48 h, triplicate, mean ± SD of at least three independent experiments.
Description: as §1

The test system of experiment [17] is Du422.1 pseudovirus (subtype C). The experiment is classed as cell-based, HIV-1. Particulars: Du422.1, subtype C, R5; TZM-bl, 48 h; triplicate, mean ± SD of three independent experiments.
Description: as §1

Experiment [18] concerns B02 pseudovirus (subtype B′). The experiment is classed as cell-based, HIV-1. The conditions noted are these: R5, TZM-bl, 48 h, triplicate, mean ± SD of at least three independent experiments.
Description: as §1

The subject of experiment [19] is CH120 pseudovirus (CRF07_BC). The experiment is classed as cell-based, HIV-1. Particulars: R5, TZM-bl, 48 h, triplicate, mean ± SD of at least three independent experiments.
Description: as §1

In experiment [20] the test system is CH119 pseudovirus (CRF07_BC). In kind it is cell-based, HIV-1. The conditions noted are these: R5, TZM-bl, 48 h, triplicate, mean ± SD of at least three independent experiments.
Description: as §1

Experiment [21] deals with TRO.11 pseudovirus (subtype B). In kind it is cell-based, HIV-1. Particulars: TRO.11, subtype B, R5; TZM-bl, 48 h; triplicate, mean ± SD of three independent experiments.
Description: as §1

Another experiment relates to HIV-1. Particulars: cited from earlier work.
Experiment [22] concerns HIV-1NL4-3 D36S/V38M pseudovirus. The experiment is classed as cell-based. Particulars: HIV-1NL4-3 D36S/V38M; TZM-bl, 48 h; mean ± SD of three independent experiments.
Description: The mutations were created using double-stranded DNA templates and selection of mutants with DpnI. For each mutation, the two primers contained the desired mutation and occupied the same starting and ending positions on opposite strands of the plasmid DNA. DNA synthesis was carried out by PCR in a 50-µL reaction volume using 1 µL of denatured plasmid template (1 ng/µL), 50 pmol of upper and lower primers and 5 U of high-fidelity thermostable polymerase PrimeStar (Takara, Dalian, China). PCR amplification was carried out for one cycle of denaturation at 98°C for 5 min, then 18 cycles of 98°C for 15 s and 68°C for 15 min, followed a final extension at 72°C for 10 min. The amplicons were treated with the restriction enzyme DpnI for 1 h at 37°C. DpnI-resistant molecules, which were rich in the desired mutants, were recovered by transforming Escherichia coli strain-DH5α to antibiotic resistance. The successful mutations were confirmed by sequencing.
(§2) HIV-1 pseudoviruses were generated as described previously [32], [55]–[56]. Briefly, 293T cells (5×10^6 cells in 15 ml of growth medium in a T-75 culture flask) were cotransfected with 10 µg of an Env-expressing plasmid and 20 µg of a backbone plasmid pSG3deltaEnv that encodes Env-defective, luciferase-expressing HIV-1 genome using Lipofectamine 2000 reagent (Invitrogen). Pseudovirus-containing culture supernatants were harvested 48 hours after transfection and filtered by 0.45-mm pore size, and stored at −80°C in 1-ml aliquots until use. The 50% tissue culture infectious dose (TCID50) of a single thawed aliquot of each pseudovirus batch was determined in TZM-bl cells. […] Briefly, the peptides were prepared with ten series dilutions in a 3-fold stepwise manner and mixed with 100 TCID50 viruses and incubated 1 hour at room temperature. The mixture was added to TZM-bl cells (10^4/well) and incubation at 37°C for 48 hours. Luciferase activity was measured using luciferase assay regents (Promega, Medison, WI) and a Luminescence Counter (Promega) according to the manufacture's instructions.
Experiment [23] deals with HIV-1NL4-3 I37T pseudovirus. The experiment is classed as cell-based. The conditions noted are these: HIV-1NL4-3 I37T; TZM-bl, 48 h; mean ± SD of three independent experiments.
Description: as §2

With enfuvirtide, the IC50 (as a rule, the midpoint of a concentration-inhibition curve) in [1] was 2.6 ± 0.48 nM; in experiment [2], 723 ± 53.5 nM; in [3], 7.61 ± 0.97 nM; in [4], 28.2 ± 5.92 nM; in experiment [5], 7.8 ± 0.43 nM; in [6], 78.1 ± 11.3 nM. The IC50 in experiment [7] is 76.4 ± 2.69 nM; in experiment [8] it was 63.3 ± 17 nM; in experiment [9], 12.1 ± 3.24 nM; in [10] it was 18.6 ± 3.15 nM; in [11], 10.1 ± 0.45 nM; in experiment [12] it was 24.8 ± 2.25 nM. The IC50 in [13] is 23.1 ± 2.55 nM; in experiment [14], 96.2 ± 6.91 nM; in [15], 281.9 ± 0.57 nM; in experiment [16], 136 ± 36.4 nM; in experiment [17], 28.4 ± 5.14 nM; in experiment [18], 8.59 ± 0.8 nM. In addition, the IC50 in [19] amounted to 50.4 ± 4.22 nM; in experiment [20], 22.1 ± 2.74 nM; in experiment [21], 334 ± 48.9 nM; in experiment [22], 322 ± 60.3 nM; in [23] it was 300 ± 55.1 nM. Also, the “inhibition of viral entry (in words)” value in the experiment on HIV-1 was “low nanomolar concentration”.

The record behind these values is article PMC3293837, “Biophysical Property and Broad Anti-HIV Activity of Albuvirtide, a 3-Maleimimidopropionic Acid-Modified Peptide Fusion Inhibitor” (PLoS ONE, 2012).
